Data from patent US20250236608A1, “EGFR INHIBITORS” (Blueprint Medicines Corporation, priority 2022, published 2025).

What was measured:
[1] = biological target: EGFR L858R (Homo sapiens (Human), UniProt P00533, L858R); test: Biochemical EGFR inhibition assay, EGFR L858R; conditions: Caliper mobility shift; 1.0 mM ATP or ATP Km; read-out: Enz EGFR_L858R IC50
Experimental: (§1) Reactions proceeded until between 10% to 20% total peptides were phosphorylated at room temperature (25° C.) and were terminated with 35 mM 2,2′,2″,2″-(ethane-1,2-diyldinitrilo)tetraacetic acid (EDTA). Product was detected using the Caliper mobility shift detection method where the phosphorylated peptide (product) and substrate were electrophoretically separated and measured. Percent activity was plotted against log concentration of compound and points to generate an apparent IC50.

[2] = biological target: EGFR (d746-750) (Homo sapiens (Human), UniProt P00533, DEL746-750); test: Biochemical EGFR inhibition assay, EGFR (d746-750); conditions: Caliper mobility shift; 1.0 mM ATP or ATP Km; read-out: Enz EGFR_Exon19-del746-750 IC50
Experimental: as §1

[3] = biological target: pEGFR (Tyr1068) in PC-9 cells (Ex19Del) (Homo sapiens (Human), UniProt P00533, DEL746-750); test: PC-9 pEGFR AlphaLISA assay; type: cell-based; conditions: 4 hours incubation, p-EGFR (Tyr1068) AlphaLISA, read-out: Ext pEGFR_PC-9 Ex19Del IC50
Experimental: PC-9/A431 pEGFR AlphaLISA Assays
Inhibitory effects of compounds were evaluated in cellular assays that measure level of intracellular phosphorylation of EGFR in PC-9 (ECACC, #90071810, Milipore/Sigma) and A431 cell lines (ATCC, CRL-1555) using AlphaLISA sureFire ultra p-EGFR (Tyr1068) assay kit (PerkinElmer, ALSU-PEGFR-A50K). PC-9 cells were seeded at 3.125×10^5 cells/ml in 40 μL phenol-free DMEM supplemented with 10% FBS per well of a 384 well plate (Corning, 3764), while A431 were seeded at 3.125×10^5 cells/ml in 40 μL in phenol-free DMEM with 0.5% FBS. Cells were allowed to adhere overnight at 37° C./5% CO2. On the next day, compounds were transferred at 4-fold, 10-point serial dilution from compound source plate to cell plates using liquid handler Echo550 and were incubated at 37° C./5% CO2 for 4 hours. A431 cells were stimulated prior harvesting for 10 min with EGF at final concentration of 30 ng/ml in the incubator. Medium was removed from the plates and cells were lysed with 10 μL of 1× AlphaLISA lysis buffer (supplemented with 1× protease/phosphatase inhibitor cocktail) followed by shaking at 600 rpm for 30 minutes at room temperature. Lysates were transferred to Optiplate (Apricot designs) and 5 μl of 1× acceptor bead mix (prepared just before use) was added to each well followed by incubation at room temperature for 1.5-2 h in dark. Then 5 μL of freshly-made donor bead mix is added to each well under subdued lighting or green filters, was mixed well on the shaker and the plate was sealed and left for an overnight incubation at room temperature in dark. On the next day, the plate was read the Envision using standard AlphaLisa settings. Percent of pEGFR inhibition was plotted against log concentration of compounds to generate IC50 values.

Chain of EGFR (d746-750) (P00533 other isoform, or with tags, fused parts or gaps del 1-694/del 746-750 limits assumed): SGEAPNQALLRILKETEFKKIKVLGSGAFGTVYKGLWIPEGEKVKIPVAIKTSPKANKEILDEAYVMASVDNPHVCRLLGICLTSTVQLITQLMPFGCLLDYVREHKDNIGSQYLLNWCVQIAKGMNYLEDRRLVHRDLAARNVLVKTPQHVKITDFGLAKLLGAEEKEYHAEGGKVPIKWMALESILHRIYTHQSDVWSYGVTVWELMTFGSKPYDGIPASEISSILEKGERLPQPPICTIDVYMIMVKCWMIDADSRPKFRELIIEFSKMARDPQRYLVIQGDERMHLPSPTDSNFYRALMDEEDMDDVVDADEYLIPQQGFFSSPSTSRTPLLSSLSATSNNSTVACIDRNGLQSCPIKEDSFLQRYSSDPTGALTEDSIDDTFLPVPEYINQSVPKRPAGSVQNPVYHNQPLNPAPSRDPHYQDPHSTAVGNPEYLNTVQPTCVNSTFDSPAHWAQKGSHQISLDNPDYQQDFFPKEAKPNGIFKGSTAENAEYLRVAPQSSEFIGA
Chain of pEGFR (Tyr1068) in PC-9 cells (Ex19Del) (P00533 other isoform, or with tags, fused parts or gaps del 746-750): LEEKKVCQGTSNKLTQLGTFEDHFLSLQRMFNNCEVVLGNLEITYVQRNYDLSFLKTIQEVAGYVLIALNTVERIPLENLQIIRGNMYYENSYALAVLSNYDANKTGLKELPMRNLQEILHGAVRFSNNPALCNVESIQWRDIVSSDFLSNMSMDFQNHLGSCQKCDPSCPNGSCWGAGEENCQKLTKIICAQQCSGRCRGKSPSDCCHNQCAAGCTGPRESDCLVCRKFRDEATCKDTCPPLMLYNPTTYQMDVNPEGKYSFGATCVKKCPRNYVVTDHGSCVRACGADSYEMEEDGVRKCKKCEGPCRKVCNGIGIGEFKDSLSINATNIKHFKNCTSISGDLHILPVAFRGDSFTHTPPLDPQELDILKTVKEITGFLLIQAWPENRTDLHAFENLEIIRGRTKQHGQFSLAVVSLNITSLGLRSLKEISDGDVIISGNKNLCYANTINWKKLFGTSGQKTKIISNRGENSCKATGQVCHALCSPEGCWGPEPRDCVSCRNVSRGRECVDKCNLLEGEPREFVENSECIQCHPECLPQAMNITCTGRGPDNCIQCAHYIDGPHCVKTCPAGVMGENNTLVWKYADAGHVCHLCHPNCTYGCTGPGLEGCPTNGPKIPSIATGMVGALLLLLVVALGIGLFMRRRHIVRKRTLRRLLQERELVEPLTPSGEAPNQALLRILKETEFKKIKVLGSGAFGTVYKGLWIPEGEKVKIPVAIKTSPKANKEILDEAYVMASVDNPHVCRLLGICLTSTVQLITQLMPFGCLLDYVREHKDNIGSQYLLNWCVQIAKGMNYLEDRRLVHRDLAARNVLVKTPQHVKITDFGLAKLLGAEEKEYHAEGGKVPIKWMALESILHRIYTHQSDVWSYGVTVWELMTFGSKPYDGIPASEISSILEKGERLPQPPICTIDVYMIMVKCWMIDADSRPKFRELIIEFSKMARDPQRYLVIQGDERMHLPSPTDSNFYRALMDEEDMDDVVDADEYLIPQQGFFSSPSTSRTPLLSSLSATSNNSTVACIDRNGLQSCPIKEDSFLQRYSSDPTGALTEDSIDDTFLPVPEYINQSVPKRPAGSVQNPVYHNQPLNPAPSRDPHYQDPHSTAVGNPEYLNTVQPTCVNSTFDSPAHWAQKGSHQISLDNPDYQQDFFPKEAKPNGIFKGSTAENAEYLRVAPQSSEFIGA
Chain of EGFR L858R (P00533 25-1210 L858R): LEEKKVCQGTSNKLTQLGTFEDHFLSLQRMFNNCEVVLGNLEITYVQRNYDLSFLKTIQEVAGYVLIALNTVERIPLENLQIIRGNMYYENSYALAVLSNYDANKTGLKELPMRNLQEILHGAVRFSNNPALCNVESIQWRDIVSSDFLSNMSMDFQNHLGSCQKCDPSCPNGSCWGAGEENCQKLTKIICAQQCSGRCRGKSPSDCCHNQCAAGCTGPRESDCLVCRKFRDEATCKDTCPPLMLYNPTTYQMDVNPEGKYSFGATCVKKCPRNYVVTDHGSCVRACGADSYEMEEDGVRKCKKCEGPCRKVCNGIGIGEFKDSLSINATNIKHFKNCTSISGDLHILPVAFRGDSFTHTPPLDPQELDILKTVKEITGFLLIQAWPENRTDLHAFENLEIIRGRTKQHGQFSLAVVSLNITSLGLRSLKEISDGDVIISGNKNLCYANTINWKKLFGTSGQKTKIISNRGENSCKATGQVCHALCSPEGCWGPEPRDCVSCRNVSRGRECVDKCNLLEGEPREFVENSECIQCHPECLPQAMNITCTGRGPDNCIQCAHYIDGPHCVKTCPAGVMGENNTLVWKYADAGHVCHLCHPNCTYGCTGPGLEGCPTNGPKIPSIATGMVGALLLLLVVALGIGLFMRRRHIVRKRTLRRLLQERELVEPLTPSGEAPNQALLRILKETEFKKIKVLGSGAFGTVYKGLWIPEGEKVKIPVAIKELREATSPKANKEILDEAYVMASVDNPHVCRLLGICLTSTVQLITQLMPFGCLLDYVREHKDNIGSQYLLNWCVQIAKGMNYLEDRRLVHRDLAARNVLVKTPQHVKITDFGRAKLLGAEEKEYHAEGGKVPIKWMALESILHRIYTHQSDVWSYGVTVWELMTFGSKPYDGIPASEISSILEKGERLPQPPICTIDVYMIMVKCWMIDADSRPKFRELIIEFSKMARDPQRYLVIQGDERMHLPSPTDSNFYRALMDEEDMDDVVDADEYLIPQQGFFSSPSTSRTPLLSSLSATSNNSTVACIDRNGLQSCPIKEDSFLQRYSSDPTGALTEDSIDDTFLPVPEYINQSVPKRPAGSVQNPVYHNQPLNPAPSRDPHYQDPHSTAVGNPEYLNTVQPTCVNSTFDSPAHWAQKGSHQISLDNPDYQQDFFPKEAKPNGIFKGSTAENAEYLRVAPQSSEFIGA

Row | SMILES | IC50 [1] [nM] | IC50 [2] [nM] | IC50 [3] [nM]
1 | CN(C)CCOc1cc2ncnc(-c3cn(C)nc3-c3ccccc3)c2nc1NC(=O)C1(C(F)(F)F)CC1 [Example 434, N-(7-(2-(dimethylamino)ethoxy)-4-(1-methyl-3-phenyl-1H-pyrazol-4-yl)pyrido[3,2-d]pyrimidin-6-yl)-1-(trifluoromethyl)cyclopropane-1-carboxamide] | 6.8 | 2 | 3.5
2 | COc1cc2ncnc(-c3cn(C)nc3-c3ccccc3)c2cc1NC(=O)c1ccnnc1 [Example 328, N-(7-methoxy-4-(1-methyl-3-phenyl-1H-pyrazol-4-yl)quinazolin-6-yl)pyridazine-4-carboxamide] | 2.3 | 1.1 | 4.5
3 | COc1cc2ncnc(-c3cn(C)nc3-c3ccccc3)c2nc1NC(=O)[C@H]1C[C@H]2C[C@H]2N1C [Example 419, (1R,3R,5R)—N-(7-methoxy-4-(1-methyl-3-phenyl-1H-pyrazol-4-yl)pyrido[3,2-d]pyrimidin-6-yl)-2-methyl-2-azabicyclo[3.1.0]hexane-3-carboxamide] | 1.6 | 1 | 0.4
4 | COc1cc2ncnc(-c3cn(C)nc3-c3ccccc3F)c2cc1OC(=O)N1CCOC[C@@H]1C [Example 74, 4-(3-(2-fluorophenyl)-1-methyl-1H-pyrazol-4-yl)-7-methoxyquinazolin-6-yl (S)-3-methylmorpholine-4-carboxylate] | 829 | 662 | 4.5
5 | COc1cc2ncnc(-c3cn(CCO)nc3-c3ccccc3)c2nc1NC(=O)C12CC(C1)C2 [Example 414, N-(4-(1-(2-hydroxyethyl)-3-phenyl-1H-pyrazol-4-yl)-7-methoxypyrido[3,2-d]pyrimidin-6-yl)bicyclo[1.1.1]pentane-1-carboxamide] | 2.1 | 1.3 | 1.2
6 | COc1cc2ncnc(-c3cn(CC(F)F)nc3-c3ccccc3)c2cc1NC(=O)c1ccc(C2CC2)nc1 [Example 333, 6-cyclopropyl-N-(4-(1-(2,2-difluoroethyl)-3-phenyl-1H-pyrazol-4-yl)-7-methoxyquinazolin-6-yl) nicotinamide] | 1.3 | 0.8 | 1.7
7 | COc1cc2ncnc(-c3cn(C)nc3-c3ccccc3)c2cc1OC(=O)N1CCN(C)C[C@H]1C (single isomer, unassigned) [Example 58, 7-methoxy-4-(1-methyl-3-phenyl-1H-pyrazol-4-yl)quinazolin-6-yl (R)-2,4-dimethylpiperazine-1-carboxylate or 7-methoxy-4-(1-methyl-3-phenyl-1H-pyrazol-4-yl)quinazolin-6-yl(S)-2,4-dimethylpiperazine-1-carboxylate] | 4.5 | 2.5 | 5.1
8 | COc1cc2ncnc(-c3cn(C)nc3-c3ccccc3)c2nc1O[C@H](C)c1nnnn1C [Example 46, (R)-7-methoxy-6-(1-(1-methyl-1H-tetrazol-5-yl)ethoxy)-4-(1-methyl-3-phenyl-1H-pyrazol-4-yl)pyrido[3,2-d]pyrimidine] | 4.4 | 1.9 | 11.7
9 | COc1cc2ncnc(-c3cn(C)nc3-c3ccccc3F)c2nc1NC(=O)[C@]12C[C@H]1CN(C)C2 [Example 374, (1R,5R)—N-(4-(3-(2-fluorophenyl)-1-methyl-1H-pyrazol-4-yl)-7-methoxypyrido[3,2-d]pyrimidin-6-yl)-3-methyl-3-azabicyclo[3.1.0]hexane-1-carboxamide] | 4.3 | 1.4 | 3.6
10 | COc1cc2ncnc(-c3c(-c4ccccc4)nn(C)c3C)c2cc1OC(=O)N1CCN(C)C[C@@H]1C [Example 482, 4-(1,5-dimethyl-3-phenyl-1H-pyrazol-4-yl)-7-methoxyquinazolin-6-yl(S)-2,4-dimethylpiperazine-1-carboxylate] | 207 | 97 | 320
11 | COc1cc2ncnc(-c3cn(CC(F)F)nc3-c3ccccc3)c2cc1OC(=O)N1CCOC[C@@H]1C [Example 76, 4-(1-(2,2-difluoroethyl)-3-phenyl-1H-pyrazol-4-yl)-7-methoxyquinazolin-6-yl (S)-3-methylmorpholine-4-carboxylate] | 2.1 | 0.9 | 1.4
12 | CCOc1cc2ncnc(-c3cn(C)nc3-c3ccccc3F)c2nc1NC(=O)[C@]12C[C@H]1CN(C)C2 (single isomer, unassigned) [Example 401, (1R,5R)—N-(7-ethoxy-4-(3-(2-fluorophenyl)-1-methyl-1H-pyrazol-4-yl)pyrido[3,2-d]pyrimidin-6-yl)-3-methyl-3-azabicyclo[3.1.0]hexane-1-carboxamide or (1S,5S)—N-(7-ethoxy-4-(3-(2-fluorophenyl)-1-methyl-1H-pyrazol-4-yl)pyrido[3,2-d]pyrimidin-6-yl)-3-methyl-3-azabicyclo[3.1.0]hexane-1-carboxamide] | 53 | 1.2 | 2.3
13 | COc1cc2ncnc(-c3cn(C)nc3-c3ccccc3)c2cc1N1CC2(COC2)C1 [Example 161, 6-(7-methoxy-4-(1-methyl-3-phenyl-1H-pyrazol-4-yl)quinazolin-6-yl)-2-oxa-6-azaspiro[3.3]heptane] | 4.6 | 2.5 | 8.1
14 | CCOc1cc2ncnc(-c3cn(C)nc3-c3ccccc3)c2cc1NC(=O)[C@]12C[C@H]1CN(C)C2 (single isomer, unassigned) [Example 257, (1R,5R)—N-(7-ethoxy-4-(1-methyl-3-phenyl-1H-pyrazol-4-yl)quinazolin-6-yl)-3-methyl-3-azabicyclo[3.1.0]hexane-1-carboxamide or (1S,5S)—N-(7-ethoxy-4-(1-methyl-3-phenyl-1H-pyrazol-4-yl)quinazolin-6-yl)-3-methyl-3-azabicyclo[3.1.0]hexane-1-carboxamide] | 1.5 | 0.9 | 4.8
15 | CCc1nc2c(-c3cn(C)nc3-c3ccccc3)ncnc2cc1OC [Example 136, 6-ethyl-7-methoxy-4-(1-methyl-3-phenyl-1H-pyrazol-4-yl)pyrido[3,2-d]pyrimidine] | 0.8 | 0.4 | 1.3
16 | COc1cc2ncnc(-c3cn(CC(F)F)nc3-c3ccccc3)c2nc1OC [Example 20, 4-(1-(2,2-difluoroethyl)-3-phenyl-1H-pyrazol-4-yl)-6,7-dimethoxypyrido[3,2-d]pyrimidine] | 1.2 | 0.5 | 0.9
17 | CN(C)C12CC(C(=O)Nc3nc4c(-c5cn(C)nc5-c5ccccc5F)ncnc4cc3OC3CC3)(C1)C2 [Example 469, N-{7-cyclopropoxy-4-[3-(2-fluorophenyl)-1-methyl-1H-pyrazol-4-yl]pyrido[3,2-d]pyrimidin-6-yl}-3-(dimethylamino) bicyclo[1.1.1]pentane-1-carboxamide] | 11.1 | 2.4 | 2.7
18 | COc1cc2ncnc(-c3cn(C)nc3-c3ccccc3)c2nc1O[C@@H](C)c1csc(C)n1 [Example 33, (S)-4-(1-((7-methoxy-4-(1-methyl-3-phenyl-1H-pyrazol-4-yl)pyrido[3,2-d]pyrimidin-6-yl)oxy)ethyl)-2-methylthiazole] | 1.1 | 0.7 | 0.8
19 | COc1cc2ncnc(-c3cn(C)nc3-c3ccccc3)c2nc1NC(=O)[C@@H]1C[C@H]2C[C@H]2N1C [Example 418, (1R,3S,5R)—N-(7-methoxy-4-(1-methyl-3-phenyl-1H-pyrazol-4-yl)pyrido[3,2-d]pyrimidin-6-yl)-2-methyl-2-azabicyclo[3.1.0]hexane-3-carboxamide] | 1.8 | 0.6 | 1.8
20 | COc1cc2ncnc(-c3cn(C)nc3-c3ccccc3)c2cc1O[C@@H]1CCOC1 [Example 12, (R)-7-methoxy-4-(1-methyl-3-phenyl-1H-pyrazol-4-yl)-6-((tetrahydrofuran-3-yl)oxy)quinazoline] | 2.8 | 1.3 | 5.6
